This passage reports RP-LC retention time results from the METLIN SMRT retention time set (Domingo-Almenara et al. 2019).

The data set in a line: gradient 5% acetonitrile 3 min, to 50% in 2 min, to 85% in 15 min, held 3 min, 100 µL/min. Particulars: column: Zorbax Extend-C18 2.1 x 50 mm; eluents: water / acetonitrile, 0.1% formic acid. The essentials: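 In both positive and negative ionization mode, a quadrupole time-of-flight mass spectrometer coupled to HPLC analyzed pure standards run in mixtures of ~100 molecules. The Zorbax Extend-C18 column (2.1 × 50 mm, 1.8 μm) was operated at 100 μL/min with water and acetonitrile, each containing 0.1% formic acid. The dead volume was 40 μL and the dwell volume 900 μL. Retention time came from adduct peaks that were computationally picked and individually inspected by hand.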
`CCCCCn1c(=O)c2ccccc2n(Cc2nc(-c3cc(OC)cc(OC)c3)no2)c1=O`: the RP-LC retention time is 1270 s. Under `Cc1ccc(NC(=O)N2CCN(Cc3nc4cc(C)ccc4o3)CC2)cc1` stands 725 s. In the case of `CC(CCNC(=O)CN1C(=O)C2CCCCN2c2ccc(C(=O)N3CCCC3)cc21)N1CCCC1` (stereo not given), the RP-LC retention time is 614 s. On to `Cc1ccccc1NC(=O)Cn1c(N)nc(C)c(C)c1=O`, for which the RP-LC retention time was 596 s. Under `CCCCCCCCN[C@H](C)[C@@H](O)c1ccc(SC(C)C)cc1` stands 1030 s; under `CCN(C(=O)c1ccc(C(C)(C)C)cc1)c1nc(-c2ccccc2)cs1`, 949 s; under `NC(=O)C1CCN(C2CC(=O)N(Cc3ccccc3)C2=O)CC1` (stereo not given), 579 s. The figure for `Cc1cc2nn(CC(=O)Nc3c(C)cccc3C)c(=O)n2c(-c2ccc(F)cc2)n1` is 826 s. The figure for `COc1ccc(-c2noc(Cc3nnc(-c4cccc(OC)c4)o3)n2)cc1` is 992 s; for `CC(=O)c1cccc(NC(=O)N2CCN(Cc3ccccc3)c3ncccc32)c1` it is 732 s. `O=C(O)c1ccc2c(c1)N(C(=O)c1ccc(F)cc1)CC2` returned an RP-LC retention time of 748 s. For the compound `Cc1cnc(C2CCC2)n1CCNC(=O)c1nccn1C`, the RP-LC retention time came to 556 s. `COC(=O)c1ccc2c(=O)n(-c3cccc(Cl)c3)c(N3CCOCC3)nc2c1` had an RP-LC retention time of 998 s. Under `CCOc1ccccc1-c1nc(-c2ccc3ncn(C)c3c2)no1` stands 747 s; under `O=C1CC(c2nc(-c3ccc(C(F)(F)F)cc3)no2)CN1c1ccc2c(c1)OCCO2` (stereo not given), 1030 s; under `Cc1cc2c(N3CCCC(C(=O)NCc4ccccc4C(F)(F)F)C3)nccc2s1` (stereo not given), 738 s. The compound `COc1ccc(S(=O)(=O)Nc2ccc3c(c2)N(C(C)=O)CC3)c(C)c1` came in with an RP-LC retention time of 722 s. `CN(C)c1ccc(C(=O)N2CCC(c3cc(N)on3)CC2)cc1` yielded an RP-LC retention time of 614 s. Compound `CCN(CC)S(=O)(=O)c1ccc2c(c1)N(CC(=O)NCc1cccs1)C(=O)C1CCCCN21` (stereo not given) had an RP-LC retention time of 949 s. For the compound `CCOC(=O)C(=O)Nc1ccc(SCc2nnc(-c3ccccc3C)o2)cc1`, the RP-LC retention time amounted to 950 s.

For the compound `CCCN(C(=O)CC)c1nc(-c2ccccc2)cs1`, the RP-LC retention time worked out at 1210 s. `Cc1cc(C)cc(C(=O)NC2CCN(c3cc(-c4ccc(Cl)cc4)[nH]n3)C2)c1` (stereo not given): the RP-LC retention time came out at 883 s. As to `CCN(C(=O)CN1C(=O)NC(c2ccc(C)cc2)C2=C1COC2=O)c1cccc(C)c1` (stereo not given), the RP-LC retention time came out at 817 s. The figure for `CCN1C(=O)COc2ccc(-c3csc(NC(=O)c4ccc(Br)cc4)n3)cc21` is 1080 s.

As to `CCn1cc(C)c(C(=O)O)c1CC(=O)NCc1ccco1`, the RP-LC retention time is 702 s.

`COC(=O)c1cc(OCC(=O)Nc2ccc(OC)cc2)c2cc(OC)ccc2n1` displayed an RP-LC retention time of 775 s. In the case of `COCc1noc([C@@H]2CC(F)(F)CN2C(=O)c2cn(C)cn2)n1`, the RP-LC retention time came to 610 s. In turn, `COc1ccc(-c2cc3nn(CC(=O)NCc4ccc(F)cc4)c(=O)n3c(C)n2)cc1` came in with an RP-LC retention time of 880 s. The figure for `CCN1CCN(CCCNc2nnc(-c3nc(C4CC4)no3)c3ccccc23)CC1` is 584 s; for `CN(Cc1ccc(OC(F)(F)F)cc1)C1CCc2nnc(C3CCOCC3)n2CC1` (stereo not given) it is 616 s. The figure for `O=C(c1ccc(Cl)cc1Cl)N1CCN(c2cc(-c3ccc(Cl)cc3)[nH]n2)CC1` is 981 s; for `COc1ccccc1NS(=O)(=O)c1c[nH]c2ncccc12` it is 706 s. The figure for `O=C(CCc1c(-c2ccccc2)nc2ccccn12)Nc1ccc(Br)cc1F` is 722 s; for `FC(F)c1nc2ccccc2n1-c1nc(N2CCOCC2)nc(N2CCOCC2)n1` it is 938 s. `O=C(Cn1cnc2nc(N3CCC(C(=O)NC4CC4)CC3)sc2c1=O)Nc1ccc(F)cc1` showed an RP-LC retention time of 655 s. The compound `CCOc1ccc(-c2noc(-c3nn(-c4ccccc4)ccc3=O)n2)cc1` had an RP-LC retention time of 919 s. In turn, `CC(=O)N1CCCSc2ccc(S(=O)(=O)N(C)c3ccc(C)cc3)cc21` displayed an RP-LC retention time of 937 s. The compound `O=C(CN1C(=O)NC2(CCCCC2)C1=O)Nc1cccc(F)c1` came in with an RP-LC retention time of 633 s. On to `CC(C)n1nnc2cc(C(=O)N(C)C)ccc21`, for which the RP-LC retention time stood at 648 s. As to `Cc1cccc(NS(=O)(=O)c2cc3n(c2)CCN(CC(C)C)C3=O)c1C`, the RP-LC retention time turned out to be 852 s. Take `Cc1ccc(CN(C(=O)C(C)Oc2cccc(C)c2C)C2CCS(=O)(=O)C2)o1` (stereo not given): the RP-LC retention time came out at 977 s. Turning to `COc1cc2nc(C(=O)N3CCCCC3)cc(Nc3ccc(F)c(F)c3)c2cc1OC`, the RP-LC retention time came to 720 s. As to `CCOC(=O)c1cc([N+](=O)[O-])sc1NC(=O)c1ccc(Cl)s1`, the RP-LC retention time came to 1310 s. Turning to `COc1ccc(NC(=O)N2CCN(c3nc4cccnc4s3)CC2)cc1`, the RP-LC retention time amounted to 690 s. `Cc1ccc(-c2nc(Cn3ccnc3C)no2)cc1` yielded an RP-LC retention time of 634 s.

On to `O=C(c1ccc(C(F)(F)F)cc1)N1CCC(n2c(-c3ccco3)nc3cccnc32)C1` (stereo not given), for which the RP-LC retention time was 826 s. `Cc1ccc2cc(CCC(=O)N3CCN(c4ncccn4)CC3)c(=O)[nH]c2c1` gave an RP-LC retention time of 670 s.

Compound `Cc1noc([C@@H]2CC(F)(F)CN2C(=O)c2occc2C)n1` registered an RP-LC retention time of 756 s. `CC(C)OCCCNC(=O)c1ccc2cnn(Cc3ccc(F)cc3)c2c1` yielded an RP-LC retention time of 656 s.

Regarding `COCc1cc(=O)n(Cc2cccc(F)c2)c(N2CCCC2)n1`, the RP-LC retention time was found to be 806 s. `Cc1cc(-c2nnc(NC(=O)c3cc4cc([N+](=O)[O-])ccc4s3)o2)n(C)n1` gave an RP-LC retention time of 789 s. For the compound `COCCNS(=O)(=O)c1cc(-c2nc(C)cs2)n(CC(=O)N2CCCCC2)c1`, the RP-LC retention time was 755 s. The figure for `CC(CCc1ccccc1)NC(=O)c1ccc2c(c1)CCCN2S(C)(=O)=O` (stereo not given) is 935 s; for `O=C(NCCSC12CC3CC(CC(C3)C1)C2)c1ccc(CN2C(=O)CCn3nccc32)cc1` it is 645 s. The figure for `O=C(Nc1cc(F)cc(F)c1)c1c(O)c2cccnc2n(-c2ccc(F)cc2)c1=O` is 918 s; for `Cc1nccn1Cc1noc(-c2ccc(Cl)cc2)n1` it is 638 s; for `O=C(COc1ccccc1F)NC1CCCCC1N1C(=O)CSC1=O` (stereo not given) it is 768 s. Compound `O=C(c1cn2ccnc(-c3ccccc3)c2n1)N1CCCC1` displayed an RP-LC retention time of 831 s. `O=C(NCc1cccnc1-c1ccc(F)cc1)c1cccc(Br)c1`: the RP-LC retention time is 734 s. The compound `O=C(O)c1nnn(-c2cccc(F)c2)c1-c1ccccn1` yielded an RP-LC retention time of 671 s. For the compound `CSc1ccc(-c2nc3cnccn3c2Nc2cccc(C(=O)NCc3ccco3)c2)cc1`, the RP-LC retention time was 793 s. Compound `Cc1ccc(NC(=O)CSc2nc(=O)n(CCN(C)C)c3c2CCC3)cc1F` registered an RP-LC retention time of 646 s. Take `O=C(COc1ccccc1)N1CCN(C(=O)c2nnn3c2COC(c2ccc(Cl)cc2)C3)CC1` (stereo not given): the RP-LC retention time was 922 s. The figure for `C(=C\c1ccccc1)/CN1CCN(CCOC(c2ccccc2)c2ccccc2)CC1` is 884 s. In the case of `CN1C(=O)C2(c3ccccc31)C(C(=O)Nc1ccc(Br)cc1F)CC1CCCN12` (stereo not given), the RP-LC retention time turned out to be 674 s. Compound `Cc1cccc(CN2N=C(C(=O)N3CCCC3)S(=O)(=O)c3ccccc32)c1` returned an RP-LC retention time of 892 s. Consider `COc1ccc(OC)c(-c2nc(Nc3ccc(C)c(Cl)c3)sc2CC(=O)O)c1`, for which the RP-LC retention time is 972 s.

Regarding `O=C(NC1CCCCC1)c1ccn[nH]1`, the RP-LC retention time was determined as 642 s.

For `O=C(Cn1nnc2ccccc2c1=O)NCCc1c[nH]c2ccc(Cl)cc12`, the RP-LC retention time is 819 s. In the case of `Cc1ccc(NC(=O)Cn2c(-c3cnccn3)nc(C)c(C)c2=O)cc1F`, the RP-LC retention time was 793 s. In the case of `Cc1cc2c(=O)n(CC(=O)NCc3ccccc3F)ccc2s1`, the RP-LC retention time was 732 s. `COc1ccc(CCc2nc(-c3ccc4oc(C)nc4c3)no2)cc1`: the RP-LC retention time amounted to 1210 s. In turn, `Cc1cc(-n2c(C)nc3ccccc3c2=O)ccc1NC(=O)C(C)Oc1ccccc1` (stereo not given) came in with an RP-LC retention time of 876 s. Regarding `CN1CCN(C(=O)C2CC(=O)N(c3ccc4c(c3)CCN4C(=O)C3CC3)C2)CC1` (stereo not given), the RP-LC retention time was 570 s. The compound `COc1ccc(OC)c(NC(=O)Cn2nc(N3CCOCC3)c3ccccc3c2=O)c1` showed an RP-LC retention time of 796 s. Compound `O=C(NCc1csc(C2CCN(C(=O)c3ccc(F)cc3F)CC2)n1)C1CCC1` showed an RP-LC retention time of 729 s. Under `COc1cccc(-c2cc3c(=O)n(Cc4nc(-c5ccc(Br)cc5)no4)ccn3n2)c1` stands 1140 s; under `Cc1ccc(CN2CCC(c3nc(-c4cnccn4)n[nH]3)CC2)c(C)c1`, 593 s; under `Cn1nnc2c(SCc3c(F)cccc3Cl)ncnc21`, 933 s. For `O=C(N[C@H]1C[C@@H]2C[C@H]1CN2C(=O)c1ccc2c(c1)OCO2)c1ccccc1`, the RP-LC retention time was 700 s.
